These results are taken from BindingDB's records for doi:10.1073/pnas.95.18.10836 (Merck Research Laboratories, 1998).

Test [1] deals with Somatostatin receptor type 5 (Homo sapiens, UniProt P35346).
Test [2] has as its target Somatostatin receptor type 3 (Homo sapiens, UniProt P32745).
The target in test [3] is Somatostatin receptor type 2 (Homo sapiens, UniProt P30874).
In test [4] the target is Somatostatin receptor type 4 (Homo sapiens, UniProt P31391).
Test [5] addresses Somatostatin receptor type 1 (Homo sapiens, UniProt P30872).

For orientation: Ki means the equilibrium dissociation constant of an inhibitor or competing ligand from its target.

Chain of Somatostatin receptor type 5 (P35346 whole entry): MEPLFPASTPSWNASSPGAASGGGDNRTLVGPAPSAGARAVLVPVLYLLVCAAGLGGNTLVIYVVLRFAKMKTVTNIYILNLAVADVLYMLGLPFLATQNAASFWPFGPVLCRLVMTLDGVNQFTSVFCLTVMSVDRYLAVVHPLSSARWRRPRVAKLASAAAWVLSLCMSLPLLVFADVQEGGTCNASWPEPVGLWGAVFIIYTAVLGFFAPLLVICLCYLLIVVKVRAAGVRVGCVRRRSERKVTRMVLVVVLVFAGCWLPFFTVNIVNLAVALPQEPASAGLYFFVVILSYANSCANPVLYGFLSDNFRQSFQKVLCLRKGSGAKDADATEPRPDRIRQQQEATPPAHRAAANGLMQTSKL
Chain of Somatostatin receptor type 3 (P32745 whole entry): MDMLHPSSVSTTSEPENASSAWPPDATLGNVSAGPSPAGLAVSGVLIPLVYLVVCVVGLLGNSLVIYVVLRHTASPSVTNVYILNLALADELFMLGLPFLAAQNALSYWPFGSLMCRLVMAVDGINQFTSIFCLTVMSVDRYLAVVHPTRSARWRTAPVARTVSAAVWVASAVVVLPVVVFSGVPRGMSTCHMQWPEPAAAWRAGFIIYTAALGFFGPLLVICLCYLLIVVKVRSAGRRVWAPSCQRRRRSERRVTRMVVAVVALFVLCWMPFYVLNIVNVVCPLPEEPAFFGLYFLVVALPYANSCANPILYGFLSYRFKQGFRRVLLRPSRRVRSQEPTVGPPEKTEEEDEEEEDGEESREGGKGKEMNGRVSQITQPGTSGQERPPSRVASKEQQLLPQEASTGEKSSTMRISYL
Chain of Somatostatin receptor type 1 (P30872 whole entry): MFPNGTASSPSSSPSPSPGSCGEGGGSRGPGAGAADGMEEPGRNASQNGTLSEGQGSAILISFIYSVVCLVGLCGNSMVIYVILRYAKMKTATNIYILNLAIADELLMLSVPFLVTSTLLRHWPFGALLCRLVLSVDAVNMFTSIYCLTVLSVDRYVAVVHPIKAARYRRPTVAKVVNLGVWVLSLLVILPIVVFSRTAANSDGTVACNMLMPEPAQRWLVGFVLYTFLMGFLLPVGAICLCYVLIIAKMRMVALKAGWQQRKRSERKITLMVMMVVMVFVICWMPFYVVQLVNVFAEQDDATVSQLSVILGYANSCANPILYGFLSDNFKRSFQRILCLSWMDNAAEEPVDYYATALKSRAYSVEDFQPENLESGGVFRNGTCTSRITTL
Chain of Somatostatin receptor type 4 (P31391 whole entry): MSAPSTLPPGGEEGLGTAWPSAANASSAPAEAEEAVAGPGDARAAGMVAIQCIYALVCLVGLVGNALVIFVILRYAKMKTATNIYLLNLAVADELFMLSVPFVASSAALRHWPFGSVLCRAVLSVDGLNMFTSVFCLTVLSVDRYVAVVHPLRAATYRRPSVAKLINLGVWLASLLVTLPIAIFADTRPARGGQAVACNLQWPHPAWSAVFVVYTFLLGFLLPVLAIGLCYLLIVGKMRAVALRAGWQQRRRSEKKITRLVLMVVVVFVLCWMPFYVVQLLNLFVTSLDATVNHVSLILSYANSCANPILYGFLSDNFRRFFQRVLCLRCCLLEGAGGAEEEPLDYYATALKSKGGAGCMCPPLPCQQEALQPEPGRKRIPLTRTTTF
Chain of Somatostatin receptor type 2 (P30874 whole entry): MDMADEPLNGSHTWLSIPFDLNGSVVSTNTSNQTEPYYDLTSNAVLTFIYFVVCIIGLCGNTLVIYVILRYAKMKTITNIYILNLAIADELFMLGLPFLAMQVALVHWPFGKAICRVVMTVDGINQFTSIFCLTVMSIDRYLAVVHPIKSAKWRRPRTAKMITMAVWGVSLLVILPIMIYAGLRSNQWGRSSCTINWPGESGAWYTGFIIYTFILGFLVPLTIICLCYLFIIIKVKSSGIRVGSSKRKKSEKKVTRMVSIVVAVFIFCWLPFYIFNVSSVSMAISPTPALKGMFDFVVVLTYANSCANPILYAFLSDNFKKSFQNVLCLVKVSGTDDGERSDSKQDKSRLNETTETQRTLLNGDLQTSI

Turning to `C[C@@H](c1c[nH]c2ccccc12)[C@@H](NC(=O)N1CCC(n2c(=O)[nH]c3ccccc32)CC1)C(=O)NC(CCCCN)C(=O)OC(C)(C)C` (stereo partly drawn) [2-[[(2R,3S)-2-[[4-[(2-Oxo-2,3-dihydro-1H-benzimidazole)-1-yl]piperidino]carbonylamino]-3-(1H-indole-3-yl)butyryl]amino]-6-aminohexanoic acid tert-butyl ester], the Ki in test [1] came to 163 nM; in test [2], 31 nM; in test [3], 0.01 nM; in test [4], 81 nM.

As for `CC(O)[C@H]1NC(=O)[C@@H](Cc2ccccc2)NC(=O)[C@H]2CCCN2C(=O)[C@H](Cc2ccc(O)cc2)NC(=O)[C@@H](Cc2c[nH]c3ccccc23)NC(=O)[C@@H](CCCCN)NC1=O` (stereo partly drawn) [(5S,8R,11R,14R,17R,19aR)-11-(4-Amino-butyl)-17-benzyl-5-(4-hydroxy-benzyl)-14-(1-hydroxy-ethyl)-8-(1H-indol-3-ylmethyl)-tetradecahydro-3a,6,9,12,15,18-hexaaza-cyclopentacyclooctadecene-4,7,10,13,16,19-hexaone], the Ki was 2010 nM in test [1]; 3070 nM in test [2]; 5660 nM in test [5]; 0.49 nM in test [3]; more than 10000 nM in test [4].

For the molecule `CC(C)[C@@H]1NC(=O)[C@H](CCCCN)NC(=O)[C@@H](Cc2c[nH]c3ccccc23)NC(=O)[C@H](Cc2ccc(O)cc2)NC(=O)[C@H](C)N(C)C(=O)[C@H](Cc2ccccc2)NC1=O` [CAS_3086456], the Ki in test [1] is 232 nM; in test [2] it was 230 nM; in test [5] it was more than 10000 nM.
